Results: US20240034733A1, “KRAS G12D INHIBITORS” (Mirati Therapeutics, Inc., priority 2020, published 2024)

What was measured:
[1] = target: T1, GDP-loaded recombinant human KRAS G12D (Homo sapiens, UniProt P01116, G12D); assay: KRas G12D Binding Assay (TR-FRET displacement of Cy5 labelled tracer); details: 60 minute incubation at 22° C.
T1 construct: corresponding to amino acids 1:169, produced at Array BioPharma; biotin (biotinylated); made in house
Experimental: This Example illustrates that exemplary compounds of the present invention bind to KRas G12D and are capable of displacing a labeled tracer ligand occupying the KRas G12D binding site.
The ability of a compound to bind to KRAS G12D was measured using a TR-FRET displacement assay. Biotinylated GDP-loaded recombinant human KRAS G12D (corresponding to amino acids 1:169, produced at Array BioPharma) was incubated with a custom-made Cy5 labelled tracer, europium labelled streptavidin and compound (2% DMSO final) in buffer (50 mM HEPES [pH 7.5], 5 mM MgCl2, 0.005% Tween-20 & 1 mM DTT). After a 60 minute incubation at 22° C., the reaction was measured using a PerkinElmer EnVision multimode plate reader via TR-FRET dual wavelength detection, and the percent of control (POC) calculated using a ratiometric emission factor. […] The POC values were fit to a 4-parameter logistic curve and the IC50 value was determined as the concentration where the curve crosses 50 POC.

[2] = system: KRas G12D-mediated phosphorylation of ERK; assay: Inhibition of KRas G12D-mediated phosphorylation of ERK in AGS cells; assay type: cell-based; details: Homo sapiens; AGS cells expressing G12D, 3 hours, phospho-ERK normalized to GAPDH
Experimental: AGS cells (ATCC CRL-1739) expressing G12D were grown in DMEM medium supplemented with 10% fetal bovine serum, 10 mM HEPES, and Penicillin/Streptomycin. Cells were plated in tissue culture treated 96 well plates at a density of 40,000 cells/well and allowed to attach for 12-14 hours. Diluted compounds were then added in a final concentration of 0.5% DMSO. After 3 hours, the medium was removed, 150 μl of 4.0% formaldehyde was added and the plates incubated at room temperature for 20 minutes. The plates were washed with PBS, and permeabilized with 150p of ice cold 100% methanol for 10 minutes. Non-specific antibody binding to the plates was blocked using 100 μL Licor blocking buffer (Li-Cor Biotechnology, Lincoln NE) for 1 hour at room temperature.
The amount of phosho-ERK was determined using an antibody specific for the phosphorylated form of ERK and compared to the amount of GAPDH. Primary antibodies used for the detection were added as follows: Phospho-ERK (Cell Signaling cs-9101) diluted 1:500 and GAPDH (Millipore MAB374) diluted 1:5000 in Licor block+0.05% Tween 20. The plates were incubated for 2 hours at room temperature. The plates were washed with PBS+0.05% Tween 20.
Secondary antibodies used to visualize primary antibodies were added as follows: Anti-rabbit-680 diluted 1:1000 and Anti-mouse-800 diluted 1:1000 both in Licor block+0.05% Tween20, and were incubated for 1 hour at room temperature. The plates were washed with PBS +0.05% Tween 20. A 100 μl aliquot of PBS was added to each well and the plates were read on a Li-Cor Odyssey CLX plate reader phospho-ERK (Thr202/Tyr204) signal was normalized to the GAPDH signal for each well and percent of DMSO control values were calculated. IC50 values were generated using a 4-parameter fit of the dose response curve

T1 sequence (P01116 1-169 isoform P01116-2 G12D): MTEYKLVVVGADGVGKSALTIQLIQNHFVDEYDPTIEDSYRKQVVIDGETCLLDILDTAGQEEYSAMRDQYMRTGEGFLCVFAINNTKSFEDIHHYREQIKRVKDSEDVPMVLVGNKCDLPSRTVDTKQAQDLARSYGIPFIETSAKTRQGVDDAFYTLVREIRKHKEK

Row | Compound | IC50 [1] | IC50 [2]
1 | Oc1cc(-c2ccc3c(N4CC5CCC(C4)N5)nc(OCC45CCCN4C[C@H](F)C5)nc3c2F)c2c(Cl)cccc2c1 (mixture of isomers) [Example 5, 4-(4-((1R,5S)-3,8-diazabicyclo[3.2.1]octan-3-yl)-8-fluoro-2-(((2R,7aS)-2-fluorotetrahydro-1H-pyrrolizin-7a(5H)-yl)methoxy)quinazolin-7-yl)-5-chloronaphthalen-2-ol] | 1.4 nM | 42 nM
2 | Oc1cccc(F)c1-c1c(Cl)cc2c(N3CC4CCC(C3)N4)nc(OCC34CCCN3C[C@H](F)C4)nc2c1F (mixture of isomers) [Example 6, 2-(4-((1R,5S)-3,8-diazabicyclo[3.2.1]octan-3-yl)-6-chloro-8-fluoro-2-(((2R,7aS)-2-fluorotetrahydro-1H-pyrrolizin-7a(5H)-yl)methoxy)quinazolin-7-yl)-3-fluorophenol] | 3.5 nM | 1800 nM
3 | N#Cc1ccccc1Oc1cc2c(N3CC4CCC(C3)N4)nc(OCC34CCCN3C[C@H](F)C4)nc2cc1-c1cc(O)cc2ccccc12 (mixture of isomers) [Example 22, 2-((4-((1R,5R)-3,8-diazabicyclo[3.2.1]octan-3-yl)-2-(((2R,7aS)-2-fluorotetrahydro-1H-pyrrolizin-7a(5H)-yl)methoxy)-7-(3-hydroxynaphthalen-1-yl)quinazolin-6-yl)oxy)benzonitrile] | 1.7 nM | 140 nM
4 | N#Cc1ccccc1Oc1cc2c(N3CC4CCC(C3)N4)nc(OCC34CCCN3C[C@H](F)C4)nc2c(F)c1-c1cc(O)cc2ccccc12 (mixture of isomers) [Example 27, 2-((4-((1R,5S)-3,8-diazabicyclo[3.2.1]octan-3-yl)-8-fluoro-2-(((2R,7aS)-2-fluorotetrahydro-1H-pyrrolizin-7a(5H)-yl)methoxy)-7-(3-hydroxynaphthalen-1-yl)quinazolin-6-yl)oxy)benzonitrile] | 3.6 nM | 44 nM
5 | Oc1cc(-c2ccc3c(N4CC5CCC(C4)N5)nc(OCC45CCCN4C[C@H](F)C5)nc3c2F)c2ccccc2c1 (mixture of isomers) [Example 28, 4-(4-((1R,5S)-3,8-diazabicyclo[3.2.1]octan-3-yl)-8-fluoro-2-(((2R,7aS)-2-fluorotetrahydro-1H-pyrrolizin-7a(5H)-yl)methoxy)quinazolin-7-yl)naphthalen-2-ol] | 0.6 nM | 171 nM
6 | CN1CCC[C@H]1COc1nc(N2CC3CCC(C2)N3)c2cc(Oc3cccnc3)c(-c3cc(O)cc4ccccc34)cc2n1 [Example 1] | 7 nM | 8390 nM
7 | Oc1cc(-c2ccc3c(N4C[C@H]5CC[C@@H](C4)N5)nc(OCC45CCCN4CCC5)nc3c2F)c2ccccc2c1 [Example 3, 4-(4-((1R,5S)-3,8-diazabicyclo[3.2.1]octan-3-yl)-8-fluoro-2-((tetrahydro-1H-pyrrolizin-7a(5H)-yl)methoxy)quinazolin-7-yl)naphthalen-2-ol] | 0.5 nM | 95 nM
8 | Oc1cc(-c2ccc3c(N4C[C@H]5CC[C@@H](C4)N5)nc(OCC45CCCN4CCC5)nc3c2F)c2c(Cl)cccc2c1 [Example 4, 4-(4-((1R,5S)-3,8-diazabicyclo[3.2.1]octan-3-yl)-8-fluoro-2-((tetrahydro-1H-pyrrolizin-7a(5H)-yl)methoxy)quinazolin-7-yl)-5-chloronaphthalen-2-ol] | 0.7 nM | 21 nM
9 | CN1CCC[C@H]1COc1nc(N2CCN(CCCl)CC2)c2ccc(-c3cc(O)cc4ccccc34)c(F)c2n1 [Example 9, (S)-4-(4-(4-(2-chloroethyl)piperazin-1-yl)-8-fluoro-2-((1-methylpyrrolidin-2-yl)methoxy)quinazolin-7-yl)naphthalen-2-ol] | 187 nM | 6790 nM
10 | COc1ccc(F)c(Oc2cc3c(N4C[C@H]5CC[C@@H](C4)N5)nc(OC[C@@H]4CCCN4C)nc3cc2-c2cc(O)cc3ccccc23)c1 [Example 17, 4-(4-((1R,5S)-3,8-diazabicyclo[3.2.1]octan-3-yl)-6-(2-fluoro-5-methoxyphenoxy)-2-(((S)-1-methylpyrrolidin-2-yl)methoxy)quinazolin-7-yl)naphthalen-2-ol bis(2,2,2-trifluoroacetate)] | 8 nM | 5560 nM
11 | COc1ccc(Oc2cc3c(N4C[C@H]5CC[C@@H](C4)N5)nc(OC[C@@H]4CCCN4C)nc3cc2-c2cc(O)cc3ccccc23)c(Cl)c1 [Example 18, 4-(4-((1R,5S)-3,8-diazabicyclo[3.2.1]octan-3-yl)-6-(2-chloro-4-methoxyphenoxy)-2-(((S)-1-methylpyrrolidin-2-yl)methoxy)quinazolin-7-yl)naphthalen-2-ol] | 11.5 nM | 1370 nM
12 | CN1CCC[C@H]1COc1nc(N2C[C@H]3CC[C@@H](C2)N3)c2cc(Oc3ccccc3Cl)c(-c3cc(O)cc4ccccc34)cc2n1 [Example 19, 4-(4-((1R,5S)-3,8-diazabicyclo[3.2.1]octan-3-yl)-6-(2-chlorophenoxy)-2-(((S)-1-methylpyrrolidin-2-yl)methoxy)quinazolin-7-yl)naphthalen-2-ol] | 1.3 nM | 1700 nM
13 | CN1CCC[C@H]1COc1nc(N2C[C@H]3CC[C@@H](C2)N3)c2cc(Oc3ccccc3C#N)c(-c3cc(O)cc4ccccc34)cc2n1 [Example 20, 2-((4-((1R,5S)-3,8-diazabicyclo[3.2.1]octan-3-yl)-7-(3-hydroxynaphthalen-1-yl)-2-(((S)-1-methylpyrrolidin-2-yl)methoxy)quinazolin-6-yl)oxy)benzonitrile] | 1.6 nM | 2160 nM
14 | N#Cc1ccccc1Oc1cc2c(N3C[C@H]4CC[C@@H](C3)N4)nc(OCC34CCCN3CCC4)nc2cc1-c1cc(O)cc2ccccc12 [Example 21, 2-((4-((1R,5S)-3,8-diazabicyclo[3.2.1]octan-3-yl)-7-(3-hydroxynaphthalen-1-yl)-2-((tetrahydro-1H-pyrrolizin-7a(5H)-yl)methoxy)quinazolin-6-yl)oxy)benzonitrile] | 1 nM | 1270 nM
15 | Oc1cc(-c2cc3nc(OC[C@@]45CCCN4C[C@H](F)C5)nc(N4C[C@H]5CC[C@@H](C4)N5)c3cc2Oc2ccccc2Cl)c2c(Cl)cccc2c1 [Example 23, 4-(4-((1R,5S)-3,8-diazabicyclo[3.2.1]octan-3-yl)-6-(2-chlorophenoxy)-2-(((2R,7aS)-2-fluorotetrahydro-1H-pyrrolizin-7a(5H)-yl)methoxy)quinazolin-7-yl)-5-chloronaphthalen-2-ol] | 6.6 nM | 264 nM
16 | CN1CCC[C@H]1COc1nc(N2C[C@H]3CC[C@@H](C2)N3)c2cc(Oc3ccccc3C#N)c(-c3cc(O)cc4ccccc34)c(F)c2n1 [Example 24, 2-((4-((1R,5S)-3,8-diazabicyclo[3.2.1]octan-3-yl)-8-fluoro-7-(3-hydroxynaphthalen-1-yl)-2-(((S)-1-methylpyrrolidin-2-yl)methoxy)quinazolin-6-yl)oxy)benzonitrile] | 1.4 nM | 377 nM
17 | CN1CCC[C@H]1COc1nc(N2C[C@H]3CC[C@@H](C2)N3)c2cc(Oc3c(Cl)cccc3C#N)c(-c3cc(O)cc4ccccc34)c(F)c2n1 [Example 25, 2-((4-((1R,5S)-3,8-diazabicyclo[3.2.1]octan-3-yl)-8-fluoro-7-(3-hydroxynaphthalen-1-yl)-2-(((S)-1-methylpyrrolidin-2-yl)methoxy)quinazolin-6-yl)oxy)-3-chlorobenzonitrile] | 5.3 nM | 784 nM
18 | CN1CCC[C@H]1COc1nc(N2C[C@H]3CC[C@@H](C2)N3)c2cc(Oc3cccc(F)c3C#N)c(-c3cc(O)cc4ccccc34)c(F)c2n1 [Example 26, 2-((4-((1R,5S)-3,8-diazabicyclo[3.2.1]octan-3-yl)-8-fluoro-7-(3-hydroxynaphthalen-1-yl)-2-(((S)-1-methylpyrrolidin-2-yl)methoxy)quinazolin-6-yl)oxy)-6-fluorobenzonitrile] | 7.4 nM | 3540 nM
